Here are results for 38 compounds from patent US20070270418A1, “Inhibitors of P38 and Methods of Using the Same” (priority 2003, published 2007).

The term IC50 denotes the concentration that gives 50% inhibition.

Test [1] deals with T1, p38α (Homo sapiens, UniProt Q16539).
T1 construct: p38 MAP Kinases are recombinant human full-length proteins with an amino-terminal GST fusion; GST (N); purchased Upstate (Charlottesville, Va.); host or cells: E. coli
Nature of the test: p38 MAP Kinase assay, ATF2 phosphorylation (ELISA). The format is biochemical. The following applies: 40 μM ATP. An excerpt: Compounds of the invention are screened for the ability to inhibit ATF2 phosphorylation by p38 MAP Kinase in vitro. The ability of compounds to inhibit ATF2 phosphorylation in this in vitro assay is correlated with the inhibition of p38 MAP Kinase and TNFα expression in vivo, and is therefore an indicator of potential in vivo therapeutic activity (Raingeaud, J., et al, J. Biol. Chem., 270: 7420-7426, 1995, Brinkman, M. N., et al, J. Bil. Chem. 274: 30882-30886, 1999 and Fuchs, S. Y. et al, J. Biol. Chem. 275: 12560-12564, 2000).
All kinases and the substrate ATF2 are acquired from Upstate (Charlottesville, Va.). p38 MAP Kinases are recombinant human full-length proteins with an amino-terminal GST fusion, expressed in and purified from E. coli. ATF2 is a GST fusion protein containing amino acids 19-96 of human ATF2 expressed in E. coli. All proteins were aliquoted and stored at −80° C.
p38 MAP Kinase assays are performed using an assay buffer containing 25 mM HEPES, pH 7.5, 10 mM MgCl2, 2 mM DTT, 20 mM β-glycerophosphate, 0.1 mM Na3VO4, 40 μM ATP and 1.25 μM of ATF2, together with 6 ng of p38α protein, 12 ng p38β protein, 1.5 ng p38γ, or 0.4 ng JNK2α2. Compounds are serially diluted in DMSO and 2 μL of test compound at 25× final concentration is used. The vehicle control receives DMSO only. Test compounds are pre-incubated with 20 μl of enzyme in kinase buffer (25 mM HEPES, pH 7.5, 10 mM MgCl2, 2 mM DTT, 20 mM 3-glycerophosphate and 0.1 mM Na3VO4) at room temperature for 15 minutes. […] The reactions are incubated for 30 minutes at 37° C. and terminated by the addition of 18 μl of 200 mM EDTA. An ELISA method is used to measure the phosphorylation of ATF2 at Thr 69. High binding 96-well plates (Corning 3369) are coated with 50 μl of kinase reaction for 1 hour at 37° C. The coated plates are washed with 200 μl washing buffer (25 mM Tris HCl, pH 8.3, 192 mM glycine, 0.1% SDS and 0.05% Tween-20) three times. The plates are then washed three times with SuperBlock in TBS (Pierce, 37535). After blocking, plates are incubated with 50 μl of rabbit anti-phospho-ATF2 antibody (Cell Signaling, 9221 L, 1:500) for 30 minutes at 37° C. Plates are washed three times with washing buffer prior to incubation with 50 μl HRP-conjugated goat anti-rabbit antibody (Cell Signaling, 7074, 1:500) for 30 minutes at 37° C. Plates are then washed three times with washing buffer before incubation with 50 μl of Ultra TMB-ELISA (Pierce, 34028) for 8 minutes at room temperature. Finally, 50 μl of phosphoric acid (1 M) is added to stop reactions and plate absorbance is read at 450 nm on a SpectraMax 250 plate reader.
(In general: An ELISA detects its analyte on a solid surface through an enzyme-linked reagent.)

Test [2] has as its system TNFα release from THP-1 cells. Nature of the test: TNFα release from LPS-stimulated THP-1 cells. It counts as cell-based. The source says:
Compounds of the invention are screened for the ability to inhibit TNFα and IL-1β release from THP-1 cells stimulated with lipopolysaccharide (LPS) in vitro. The ability of compounds to inhibit TNFα and IL-1β release in this in vitro assay is correlated with the inhibition of p38 activity and TNFα and IL-1β expression in vivo, and is therefore an indicator of potential in vivo therapeutic activity (Lee J. C. et al, Ann. N.Y. Acad. Sci. 696: 149-170, 1993 and Nature, 372: 739-746, 1994).
THP-1 cells from ATCC (TIB202) are maintained at 37° C., 5% CO2 in RPMI 1640 media (MediaTech, Herndon, Va.) containing 4.5 g/L glucose, supplemented with 10% fetal bovine serum, 1% penicillin/streptomycin and 50 μM β-mercaptoethanol.
Test compounds are initially dissolved in RPMI media with 1% DMSO (v/v). Compounds are then serially diluted in RPMI media for all subsequent dilutions. The assay is performed under sterile conditions. THP-1 cells at a culture density of 6-8×10^5 cells/ml are collected and resuspended in the RPMI media at 10^6 cells/ml. 100 μl of resuspended cells are added to each well, which contain 100 μl of a test compound. Test compounds are prepared at twice the final concentration. Final DMSO concentration is no more than 0.5% (v/v). Cells are preincubated with compound for 30 minutes at 37° C., 5% CO2 prior to stimulation with lipopolysaccharide (LPS) (Sigma L-2880, 4 mg/ml stock in PBS). The final LPS concentration in each well is 10 or 30 μg/ml for TNFα and IL-1β release, respectively. Unstimulated control cell suspensions receive PBS vehicle only. Cell mixtures are incubated for 18 or 48 hours for TNFα and IL-1β release, respectively. 150 μl of supernatants are taken and transferred to a fresh plate and stored at −20° C. until further analysis.

Setting [3] is: Homo sapiens, THP-1, 18 h, LPS 10 μg/ml, 18 hours, read-out: TNFα (THP-1) IC50.
Setting [4] is: LPS 10 μg/ml, 18 hours, read-out: TNFα (THP-1) IC50.
The mark [5] stands for this setting: Homo sapiens, THP-1, 18 h, read-out: TNFα (THP-1) IC50 (nM).

Where two headings read alike, the source gives them in different places.

T1 sequence (Q16539 whole entry, the tested form may be a part): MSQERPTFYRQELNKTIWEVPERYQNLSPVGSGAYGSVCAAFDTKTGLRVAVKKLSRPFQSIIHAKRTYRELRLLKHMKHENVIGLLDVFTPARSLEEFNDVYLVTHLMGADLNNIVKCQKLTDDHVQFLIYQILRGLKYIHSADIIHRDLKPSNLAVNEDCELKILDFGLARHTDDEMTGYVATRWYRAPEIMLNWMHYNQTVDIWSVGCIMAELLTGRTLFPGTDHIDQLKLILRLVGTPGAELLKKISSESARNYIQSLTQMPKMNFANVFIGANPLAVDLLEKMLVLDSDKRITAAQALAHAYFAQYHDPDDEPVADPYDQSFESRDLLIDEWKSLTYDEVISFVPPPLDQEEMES

On to `CN(C)CC(C)(C)CNc1nccc(-c2c(-c3ccc(F)cc3Cl)nc3occn23)n1` [CCXCX], for which the 50% inhibitory concentration (IC50) stood at 0.0203 µM in test [1] and 78.2 nM in test [2] (setting [3]).
On the same counts, the results for `Oc1ccc(C(O)CNc2nccc(-c3c(-c4ccc(F)cc4)nc4occn34)n2)cc1` (stereo not shown) [LXXX] are 0.0825 µM and 88.4 nM.
`CC(=O)N1CCC(Nc2nccc(-c3c(-c4ccc(F)cc4F)nc4occn34)n2)CC1` [CCCXVII]: the IC50 is 0.003 µM in test [1] and 13.7 nM in test [2] (setting [3]).
On to `OC1(CNc2nccc(-c3c(-c4ccc(F)cc4)nc4sccn34)n2)CCCCC1` [CCL], for which the IC50 in test [1] was found to be 0.0272 µM; in test [2] (setting [3]), 15.5 nM.
For `CCCC[C@@H](CO)Nc1nccc(-c2c(-c3ccc(F)cc3)nc3sccn23)n1` [CCXXII] the same measures were 0.00545 µM and 49.6 nM.
Turning to `Fc1ccc(-c2nc3occn3c2-c2ccnc(NCc3cccnc3)n2)cc1` [LXXXV], the IC50 in test [1] was 0.0663 µM; in test [2] (setting [3]), 39.3 nM.
On the same counts, the results for `CC(CN(C)C)Nc1nccc(-c2c(-c3ccc(F)cc3)nc3sccn23)n1` (stereo not shown) [CCLVII] are 0.0254 µM and 38.6 nM.
In the case of `CC(=O)N1CCC(Nc2nccc(-c3c(-c4ccccc4C)nc4occn34)n2)CC1` [CCCV], the IC50 stood at 0.0048 µM in test [1] and 41 nM in test [2] (setting [3]).
For `Oc1ccc(CCNc2nccc(-c3c(-c4ccc(F)cc4)nc4occn34)n2)cc1` [CXII] the same measures were 0.00345 µM and 13.1 nM.
As for `CS(=O)(=O)N1CCC(Nc2nccc(-c3c(-c4ccccc4Cl)nc4occn34)n2)CC1` [CCCXVIII], the IC50 in test [1] came to 0.001 µM; in test [2] (setting [3]), 18.2 nM.
For `Fc1ccc(-c2nc3occn3c2-c2ccnc(NCCN3CCOCC3)n2)cc1` [LXVI] the same measures were 0.0759 µM and 193 nM.
On the same counts, the results for `OC1(CNc2nccc(-c3c(-c4ccc(F)cc4)nc4sccn34)n2)CCCc2ccccc21` (stereo not shown) [CCXLVIII] are 0.00839 µM and 20.8 nM.
For `Fc1ccc(-c2nc3occn3c2-c2ccnc(N[C@@H]3CN4CCC3CC4)n2)c(Cl)c1` [CCXC], the IC50 came to 0.0068 µM in test [1] and 72 nM in test [2] (setting [3]).
As for `CC(C)C(CO)Nc1nccc(-c2c(-c3ccc(F)cc3)nc3sccn23)n1` (stereo not shown) [CLXXII], the results for the IC50 in test [1] and in test [2] (setting [3]) were 0.00467 µM and 48.1 nM, respectively.
In the case of `Fc1ccc(-c2nc3occn3c2-c2ccnc(NC3CC3)n2)cc1` [XVIII], the IC50 in test [1] is 0.00044 µM; in test [2] (setting [3]) it was 11.2 nM.
`Fc1ccc(-c2nc3occn3c2-c2ccnc(NCCc3ccncc3)n2)cc1` [LI]: the IC50 is 0.00806 µM in test [1] and 94.4 nM in test [2] (setting [3]).
Turning to `CN(C)CC(C)(C)CNc1nccc(-c2c(-c3ccc(F)cc3F)nc3occn23)n1` [CCXCIX], the IC50 in test [1] was 0.0061 µM; in test [2] (setting [3]), 17.8 nM.
For `CCOC(=O)N1CCC(Nc2nccc(-c3c(-c4ccc(F)cc4)nc4sccn34)n2)CC1` [CCXVII] the same measures were 0.00119 µM and 7.84 nM.
For `CCC[C@@H](CO)Nc1nccc(-c2c(-c3ccc(F)cc3)nc3occn23)n1` [CVIII] the same measures were 0.00311 µM and 11.7 nM.
For the compound `CC(C)(CNC(=O)OC(C)(C)C)CNc1nccc(-c2c(-c3ccc(F)cc3)nc3sccn23)n1` [CCLXIII], the IC50 in test [1] was 0.00585 µM; in test [2] (setting [3]), 23.3 nM.
In the case of `NCCCNc1nccc(-c2c(-c3ccc(F)cc3)nc3occn23)n1` [XCI], the half-inhibitory concentration (IC50) came out at 0.0499 µM in test [1] and 188 nM in test [2] (setting [3]).
On the same counts, the results for `FC(F)(F)c1cccc(-c2nc3occn3c2-c2ccnc(N[C@H]3CN4CCC3CC4)n2)c1` [CCXCIV] are 0.0164 µM and 90 nM.
On the same counts, the results for `CN(C)CCCNc1nccc(-c2c(-c3ccc(F)cc3)nc3occn23)n1` [XXXVIII] are 0.343 µM and 168 nM.
For `Fc1ccc(-c2nc3occn3c2-c2ccnc(NCc3ccncc3)n2)cc1` [LXXIII], the figures for the IC50 in test [1] and in test [2] (setting [3]) were 0.234 µM and 96.6 nM, respectively.
For the compound `CC(CO)Nc1nccc(-c2c(-c3ccc(F)cc3)nc3occn23)n1` (stereo not shown) [XXX], the IC50 was found to be 0.0348 µM in test [1] and 12.3 nM in test [2] (setting [4]).
With `CC[C@@H](CO)Nc1nccc(-c2c(-c3ccc(F)cc3)nc3occn23)n1` [XXII], the IC50 came out at 0.0037 µM in test [1] and 18.6 nM in test [2] (setting [3]).
On the same counts, the results for `CCC(CO)(CO)Nc1nccc(-c2c(-c3ccc(F)cc3)nc3sccn23)n1` [CLXXX] are 0.0808 µM and 57.4 nM.
Take `Cc1ccccc1-c1nc2occn2c1-c1ccnc(N[C@H]2CN3CCC2CC3)n1` [CCCII]: the 50% inhibitory concentration (IC50) worked out at 0.0138 µM in test [1] and 5.5 nM in test [2] (setting [5]).
Consider `CC(CN(C)C)Nc1nccc(-c2c(-c3ccc(F)cc3)nc3occn23)n1` (stereo not shown) [CXXIV], for which the IC50 is 0.0596 µM in test [1] and 67.7 nM in test [2] (setting [3]).
On the same counts, the results for `Oc1cccc(C(O)CNc2nccc(-c3c(-c4ccc(F)cc4)nc4occn34)n2)c1` (stereo not shown) [LXXV] are 0.00509 µM and 26.6 nM.
On the same counts, the results for `COC[C@H](C)Nc1nccc(-c2c(-c3ccc(F)cc3)nc3occn23)n1` [XXXII] are 0.019 µM and 4.89 nM.
For the compound `CN1[C@@H]2CC[C@H]1C[C@@H](Nc1nccc(-c3c(-c4ccccc4Cl)nc4occn34)n1)C2` [CCXCVII], the IC50 in test [1] was 0.0068 µM; in test [2] (setting [5]), 24.4 nM.
On to `CC(C)(C)OC(=O)N1CCCC(Nc2nccc(-c3c(-c4ccc(F)cc4)nc4sccn34)n2)C1` (stereo not shown) [CCLXII], for which the results for the IC50 in test [1] and in test [2] (setting [3]) were 0.0298 µM and 196 nM, respectively.
On the same counts, the results for `CS(=O)(=O)c1ccc(CNc2nccc(-c3c(-c4ccc(F)cc4)nc4occn34)n2)cc1` [LXXXI] are 1.23 µM and 1230 nM.
On the same counts, the results for `Oc1ccc(C(O)CNc2nccc(-c3c(-c4ccc(F)cc4)nc4sccn34)n2)cc1` (stereo not shown) [CCXII] are 0.00881 µM and 24.1 nM.
As to `CC(=O)N1CCC(Nc2nccc(-c3c(-c4cccc(C(F)(F)F)c4)nc4occn34)n2)CC1` [CCCVI], the figures for the IC50 in test [1] and in test [2] (setting [3]) were 0.0049 µM and 82.6 nM, respectively.
As for `Oc1ccc(CCNc2nccc(-c3c(-c4ccc(F)cc4)nc4sccn34)n2)cc1` [CCXXXIX], the IC50 in test [1] was 0.00582 µM; in test [2] (setting [3]), 21 nM.
In the case of `COc1cccc(-c2nc3sccn3c2-c2ccnc(N[C@H](CO)C(C)C)n2)c1` [CCLXX], the IC50 in test [1] is 0.112 µM; in test [2] (setting [4]) it was 93.5 nM.
